The supplement of paper PMC10949913

Tests used:
CU-ACC2 = assay: area under concentration-response curve (viability) (AUC (a.u.)); higher = less active; conditions: 48 h
Summary of the method: (§1)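 After 48 h of treatment with 23 nL of each library compound at 11 concentrations, three adrenocortical carcinoma cell lines in 1,536-well plates (500–1,000 cells/well, 5 µL medium) were given CellTiter-Glo for 15 minutes at room temperature. Luminescence was then read and normalised per plate to vehicle and empty-well controls. AC50 and area under the curve were drawn from fitted concentration-response curves of inhibitory or non-responding classes only.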

CU-ACC1 = assay: as above; conditions: 48 h
Summary of the method: as §1

Structure (SMILES) | area under concentration-response curve (CU-ACC2) | area under concentration-response curve (CU-ACC1)
CC1=C(C=CC=C1)N2\C(=N/C3=C(C(=CC=C3)C)C2=O)C[N]4N=CC5=C4N=CN=C5N | 614 | 583
CCN(c1ccccc1)c1cc(NC)[n+](C)c(C)n1 | 600 | 574
O=C(c1ccccc1)c1ccc2n1CCC2C(=O)O (stereo not drawn) | 529 | 448
CC/C(=C(/c1ccc(/C=C/C(=O)O)cc1)c1ccc2[nH]ncc2c1)c1ccc(F)cc1Cl | 508 | 501
C[C@H](NC1=NC=NC2=C1[NH]C=N2)\C3=N\C4=C(C=C(F)C=C4)C(=O)N3C5=CC=CC=C5 | 280 | 344
O=C(NCCO[N+](=O)[O-])c1cccnc1 | 605 | 566
COc1ccc2[n-]c([S+]([O-])Cc3ncc(C)c(OC)c3C)nc2c1 (stereo not drawn) | 398 | 387
O=C(Oc1ccc([N+](=O)[O-])cc1)N1CCN(Cc2cccc(Oc3ccccc3)c2)CC1 | 556 | 531
CCc1cc(/C(C)=N/OCc2ccc(C3CCCCC3)c(C(F)(F)F)c2)ccc1CN1CC(C(=O)O)C1 | 526 | 462
C=CC(=O)N1C[C@H](Nc2ncnc3[nH]ccc23)CC[C@@H]1C | 622 | 587
CC(=O)Oc1cc2c(s1)CCN(C(C(=O)C1CC1)c1ccccc1F)C2 (stereo not drawn) | 476 | 492
CN1CCc2c(c3ccccc3n2Cc2ccc(C(=O)NO)cc2)C1 | 595 | 553
O=P(O)(O)C(O)(Cn1ccnc1)P(=O)(O)O | 679 | 628
ClC1=CC=C(C=C1)C(C#N)C2=C(Cl)C=C(C=C2Cl)N3\N=C/C(=O)NC3=O (stereo not drawn) | 626 | 524
Cn1ccc2cc3c(cc21)CCN3C(=O)Nc1cccnc1 | 490 | 455
COc1c(C)cc(NC(=O)c2nn(Cc3ccc(F)cc3)c3c2CN(C(=O)c2ccc[nH]2)C[C@]3(C)C(N)=O)cc1C | 646 | 567
CCN(CC)C(=O)Cc1csc(N[S+](=O)([O-])c2cccc(Cl)c2C)n1 | 445 | 415
O=C(C1CC1)N1CC[C@@H](Cn2c(-c3ccc(-c4ccc5occc5c4)cc3)nc3cnccc32)C1 | 486 | 505
NC\1=N\C(=O)N(\C=C1)[C@@H]2O[C@H](CO)[C@@H](O)[C@H]2O | 610 | 582
CCOCc1nc2c(N)nc3ccccc3c2n1CC(C)(C)O | 562 | 510
CC(=O)OCC(=O)[C@@]1(O)CC[C@H]2[C@@H]3CCC/4=C/C(=O)CC[C@]4(C)[C@H]3C(=O)C[C@]12C | 617 | 531
C=CC(=O)N[C@H]1CN(c2nc(Nc3cn(C)nc3OC)c3ncn(C)c3n2)C[C@@H]1F | 422 | 401
CNC(=O)c1ccc(N2C(=S)N(c3cnc(C#N)c(C(F)(F)F)c3)C(=O)C23CCC3)cc1F | 565 | 505
COc1cc([C@@H]2c3cc4c(cc3[C@@H](O[C@@H]3O[C@@H]5CO[C@@H](C)O[C@H]5[C@H](O)[C@H]3O)[C@H]3COC(=O)[C@H]23)OCO4)cc(OC)c1O | 592 | 492
CCC(C)(C)c1ccc(CC(C)CN2C[C@@H](C)O[C@@H](C)C2)cc1 (stereo partly drawn) | 504 | 462

Structure (SMILES) | area under concentration-response curve (CU-ACC2) | area under concentration-response curve (CU-ACC1)
CNC(=O)c1ccccc1Nc1nc(Nc2ccc3c(c2OC)CCC[C@@H](N2CCN(CCO)CC2)C3)ncc1Cl | 644 | 548
CC1=C(/C=C/C(C)=C/C=C/C(C)=C\C(=O)O)C(C)(C)CCC1 | 586 | 491
CO[C@@H]1COCC[C@@H]1N[C@@H]1CC[C@@](C(=O)N2CCc3ncc(C(F)(F)F)cc3C2)(C(C)C)C1 | 640 | 591
Cc1cc(C(=O)Nc2cc(Oc3ccc4nc(NC(=O)C5CC5)cn4n3)ccc2C)n(C)n1 | 606 | 511
CC(=O)Nc1ccc(OC[C@](C)(O)C(=O)Nc2ccc([N+](=O)[O-])c(C(F)(F)F)c2)cc1 | 515 | 519
COc1ccnc(C[S+]([O-])c2nc3cc(OC(F)F)ccc3[nH]2)c1OC (stereo not drawn) | 585 | 554
Cl.NC(CO)C(=O)NNCc1ccc(O)c(O)c1O (stereo not drawn) | 627 | 562
CC(C)(C)C1=NC2=C([NH]1)C3=CC=C(F)C=C3C4=C2\C=C/NC4=O | 500 | 494
CC[C@@]1([C@@H]2O[C@@H]([C@H]3O[C@@](O)(CO)[C@H](C)C[C@@H]3C)C[C@@H]2C)CC[C@H]([C@]2(C)CC[C@]3(C[C@H](O)[C@@H](C)[C@@H]([C@@H](C)[C@@H](OC)[C@H](C)C(=O)[O-])O3)O2)O1 | 410 | 427
CN1C(=O)[C@@H](NC(=O)c2cc(Cc3ccccc3)on2)COc2ccccc21 | 325 | 361
CCN1CCCC1CNC(=O)c1cc([S+](=O)([O-])CC)c(N)cc1OC (stereo not drawn) | 591 | 561
CC(C)(c1ccc(OCC(O)CO)cc1)c1ccc(OCC(O)CCl)cc1 (stereo not drawn) | 301 | 384
CCCCCCOC(=O)/N=C(/N)c1ccc(NCc2nc3cc(C(=O)N(CCC(=O)OCC)c4ccccn4)ccc3n2C)cc1 | 594 | 523
COc1ccc2c(c1)c(CC(=O)O)c(C)n2C(=O)c1ccc(Cl)cc1 | 566 | 495
CC(C)N(C[C@H]1O[C@@H](n2cnc3c(N)ncnc32)[C@H](O)[C@@H]1O)[C@H]1C[C@@H](CCc2nc3cc(C(C)(C)C)ccc3[nH]2)C1 | 598 | 543
C[N]1C=C(C2=CC=CC=C12)\C3=C(\C(=O)NC3=O)C4=C[N](C5CCN(CC5)CC6=NC=CC=C6)C7=C4C=CC=C7 | 500 | 494
NC1CCCN(c2c(/C=C3\SC(=O)NC3=O)cccc2-c2ccccc2)C1 (stereo not drawn) | 648 | 563
CC1(C)O[C@@H]2C[C@H]3[C@@H]4C[C@H](F)C/5=C/C(=O)/C=C\[C@]5(C)[C@@]4(F)[C@@H](O)C[C@]3(C)[C@@]2(O1)C(=O)CO | 586 | 485
CC(C)=CC[C@@H](O)C/1=C/C(=O)C2=C(O)C=CC(=C2C1=O)O | 603 | 568
Cn1cc(-c2ccncc2)c(-c2ccc(OCc3ccc4ccccc4n3)cc2)n1 | 597 | 495
CC1(N)CCN(c2cccnc2NC(=O)c2nc(-c3ncccc3C(F)(F)F)cnc2N)CC1 | 509 | 430
CC(C)c1ccc2oc3nc(N)c(C(=O)O)cc3c(=O)c2c1 | 606 | 543
COc1ncnc(N[S+](=O)([O-])c2ccc(N)cc2)c1OC | 604 | 593
C[C@]12CC[C@@H]3c4ccc(O)cc4CC[C@H]3[C@@H]1C[C@@H](O)[C@@H]2O | 398 | 388
